Experimental data from US4714699A, “2-tolylmorpholine derivatives and pharmaceutical compositions” (Societe Anonyme Dite: Laboratoire L. Lafon, priority 1983, dated 1987).
“Also recorded” adds a separate entry of the source.

Assays:
[1] = cardiovascular study in dogs; format: in vivo
[2] = cardiovascular study in rats; format: in vivo; settings: normally hypertensive rats
[3] = pretoxicity (LD-O, maximum non-lethal dose); format: in vivo, male mice
Protocol: (§1) In the following tests, CRL 40 875, in solution in distilled water, was administered intraperitoneally in a volume of 20 ml/kg to male mice and 5 ml/kg to male rats.
(§2) In the following tests, CRL 40 897, in solution in distilled water (pH 4), was administered intraperitoneally in a volume of 20 ml/kg to male mice and in a volume of 5 ml/kg to male rats, the procedures being those given above for CRL 40 875.
(§3) In the tests undertaken, CRL 40 912, in solution in distilled water (pH 4.5), was administered intraperitoneally in a volume of 20 ml/kg to male mice and in a volume of 5 ml/kg to male rats, the procedures being those given above for CRL 40 875.
(§4) The toxicological and neuropsychopharmacological studies undertaken in accordance with the procedures described above for CRL 40 875 enabled the following observations to be made: […]

[4] = overall behavior and reactivities in mice; format: in vivo, male mice
Protocol: as §1
Groups of three mice are observed before and then 15 minutes, 30 minutes, 1 hour, 2 hours, 3 hours and 24 hours after the administration of CRL 40 875.
as §2, §4

[5] = interaction with apomorphine in mice; format: in vivo, male mice; settings: mice
Protocol: as §1
Groups of 6 mice receive CRL 40 875 0.5 hour before the subcutaneous injection of 1 or 16 mg/kg of apomorphine.
as §2, §3

[6] = interaction with apomorphine in rats; format: in vivo, male rats; settings: i.p., 0.5 mg/kg apomorphine
Protocol: as §1
CRL 40 875 is administered to groups of 6 rats 0.5 hour before the subcutaneous injection of 0.5 mg/kg of apomorphine.
as §2, §3

[7] = interaction with amphetamine; format: in vivo, male rats; settings: i.p.; 2 mg/kg amphetamine; rats
Protocol: as §1, §2, §3

[8] = interaction with reserpine; format: in vivo, male mice; settings: i.p., mice
Protocol: as §1
Four hours after the intraperitoneal injection of 2.5 mg/kg of reserpine, groups of 6 mice receive CRL 40 875. The effects on the temperature and ptosis are observed.
as §2, §3

[9] = interaction with oxotremorine; format: in vivo, male mice
Protocol: as §1
CRL 40 875 is administered to groups of 6 mice half an hour before the intraperitoneal injection of 0.5 mg/kg of oxotremorine.
as §2, §3

[10] = four plate test; format: in vivo, male mice; settings: i.p., mice
Protocol: as §1
(§5) The test is performed on groups of 10 mice half an hour after the administration of CRL 40 875.
as §2

[11] = action on the spontaneous motility; format: in vivo, male mice; settings: mice
Protocol: as §1
Half an hour after they have received CRL 40 875, the mice (6 per dose, 12 control animals) are placed in an actimeter, where their motility is recorded for 30 minutes.
as §2

[12] = action on the intergroup aggressiveness; format: in vivo, male mice; settings: 0.5 mg/kg and 2 mg/kg i.p., mice
Protocol: as §1
After they have stayed for 3 weeks in the two halves of a cage divided by an opaque partition, groups of 3 mice receive CRL 40 875. Half an hour later, the two groups from the same cage are brought together by removal of the partition, and the number of fights which occur in 10 minutes is noted.
as §2, §3

[13] = motility reduced by habituation to the enclosure; format: in vivo, male mice; settings: i.p.
Protocol: as §1
After they have stayed in the actimeters for 18 hours, the mice (6 per dose, 12 control animals) receive CRL 40 875. They are immediately returned to their respective enclosures and, half an hour later, their motility is recorded for 30 minutes.
as §2, §3

[14] = motility reduced by hypoxic aggression; format: in vivo, male mice; settings: i.p.
Protocol: as §1
Half an hour after they have received CRL 40 875, the mice (10 per dose, 20 control animals) are subjected to acute hypobaric anoxia [pressure reduction of 600 mm Hg (i.e. about 8×10^4 pascals) in 90 seconds; release of vacuum in 45 seconds] and are then placed in an actimeter, where their motility is recorded for 10 minutes.
as §2

[15] = asphyxiant anoxia (gallamine triiodoethylate); format: in vivo, male mice; settings: i.p., mice
Protocol: as §1
Groups of 20 mice receive CRL 40 875 half an hour before the intraperitoneal administration of 32 mg/kg of gallamine triidoethylate (which is a reference curarizing agent).
as §2, §3

[16] = clinical trials, treatment of depressions; format: in vivo; settings: man
Description: In clinical trials, good results were obtained on man with CRL 40 875 (Example 1), CRL 40 912 (Example 2) and CRL 40 897 (Example 3) in the treatment of depressions.

[17] = neuropsychopharmacological study, overall findings; format: in vivo, mice, rats; settings: for sedative effects: weak doses where stated
Protocol: as §1, §2, §3, §4

[18] = traction test; format: in vivo, male mice; settings: i.p., mice
Protocol: as §1, §5, §2

[19] = electric shock; format: in vivo, male mice; settings: i.p., mice
Protocol: as §1, §5, §2

[20] = tested on: α-adrenergic; experiment: α-adrenergic stimulation; settings: in vivo; hydrochloride
[21] = overall behavior in rats; format: in vivo, male rats; settings: 32 mg/kg i.p., male rats
Protocol: as §1, §4

[22] = 64 mg/kg and 32 mg/kg i.p., mice
[23] = 128 mg/kg i.p., groups of three mice
[24] = anesthetized dogs, intraduodenal (CRL 40 903: then intravenous)

Cc1ccc(C2CN(C(C)C)CCO2)cc1.Cl (centres unmarked) [CRL 40 875, 2-p-tolyl-4-isopropylmorpholine hydrochloride]
effect on blood pressure and heart rate ([1]; dogs): hypotensive and tachycardiac agent | cardiovascular parameters [2]: does not modify the cardiovascular parameters | mortality [3, 22]: no mortality | signs of toxicity [3, 22]: abdominal cramp and trembling | mortality [3, 23]: death (of the 3 animals in the group) | signs of toxicity [3, 23]: thick saliva and convulsions | time to death ([3]; 128 mg/kg i.p., mice): 10 min | duration of hypothermia ([4]; 2 mg/kg i.p., mice): 0.5 h | hypothermia (temperature change) ([4]; 2 mg/kg i.p., mice): -1.5 °C | duration of hypothermia ([4]; 8 mg/kg i.p., mice): 1 h | duration of piloerection ([4]; 8 mg/kg i.p., mice): 3 h | hypothermia (temperature change) ([4]; 8 mg/kg i.p., mice): -3.9 °C | piloerection, animals affected ([4]; 8 mg/kg i.p., mice): 2/3 | duration of mydriasis ([4]; 32 mg/kg i.p., mice): 0.5 h | duration of reduction in the reactivity to touch and muscular tonus ([4]; 32 mg/kg i.p., mice): 2 h | hypothermia (temperature change) ([4]; 32 mg/kg i.p., mice): -4.1 °C | mydriasis ([4]; 32 mg/kg i.p., mice): moderate mydriasis | piloerection, animals affected ([4]; 32 mg/kg i.p., mice): 2 out of 3 | intrinsic hypothermic effect ([5]; i.p.): exerts an intrinsic hypothermic effect | effect on righting behavior and stereotypies ([5]; i.p., apomorphine): does not modify the righting behavior and the stereotypies | effect on the hypothermia induced by apomorphine ([5]; strong dose (32 mg/kg) i.p., 16 mg/kg apomorphine): partially opposes the hypothermia induced by 16 mg/kg of apomorphine | effect on stereotypies induced by apomorphine [6]: does not substantially impair the stereotype behavior induced by apomorphine in rats | effect on stereotypies induced by amphetamine [7]: stereotypies induced by amphetamine are not modified | effect on the ptosis induced by reserpine [8]: without modifying the ptosis induced by reserpine | effect on the hypothermia induced by reserpine ([8]; strong dose): aggravates the hypothermia induced by reserpine | effect on peripheral cholinergic symptoms (defecation) after oxotremorine ([9]; 0.5, 2, 8 and 32 mg/kg i.p., mice): increases the proportion of mice which exhibit defecation | effect on the trembling due to oxotremorine ([9]; 8 and 32 mg/kg i.p., mice): seems to increase the duration of the trembling due to oxotremorine | hypothermic effect ([9]; i.p., mice): exerts a hypothermic effect | effect on the temperature drop caused by oxotremorine ([9]; strong dose, i.p.): partially opposes the temperature drop caused by oxotremorine | number of punished passes [10]: does not cause an increase in the number of punished passes | hypomotility ([11]; 8 and 32 mg/kg i.p.): very significant | minimal effective dose ([11]; Mus musculus, ip, read-out: dose as from which motility is reduced): ≥ 2 mg/kg | effect on number of fights [12]: suppression of the fights | effect on the motor activity [12]: only a moderate effect on the motor activity | resumption in the activity of mice accustomed to their enclosure [13]: does not cause a resumption in the activity of mice accustomed to their enclosure | motor recovery in mice after reduced-pressure enclosure [14]: does not cause an improvement in the motor recovery | time taken for convulsions and death to occur following asphyxiant anoxia [15]: delays the time taken for convulsions and death to occur | results in the treatment of depressions [16]: good results | variation of sedative effects with dose ([17]; in vivo): increase continuously with the dose administered, up to a maximum value, and then decrease continuously and progressively as the dose increases | antidepressant effects ([17]; strong doses, hydrochloride): antidepressant effects (antagonism of the hypothermia induced by apomorphine and oxotremorine); also recorded: antidepressants at strong doses | sedative effects ([17]; hydrochloride): sedative effects (hyporeactivity, hypothermia, hypomotility, significant reduction of aggressiveness, delayed onset of asphyxiant convulsions); also recorded: sedative effects (hypomotility, hypothermia, reduction of intergroup aggressiveness | major motor incapacity [18]: does not cause major motor incapacity | effect on electric shock [19]: does not modify the convulsant effects of electric shock | α-adrenergic stimulant effect [20]: signs of peripheral α-adrenergic stimulation (salivation, piloerection, trembling); also recorded: stimulant effects, especially of the α-adrenergic type

Cc1ccc(C2CN(C(C)(C)C)CCO2)cc1.Cl (centres unmarked) [CRL 40 903, 2-p-tolyl-4-tert.-butylmorpholine hydrochloride]
maximum increase in femoral flow rate ([1]; 20 mg/kg, anesthetized dogs, intraduodenal then intravenous): +150% | minimal effective dose ([1]; Canis lupus familiaris, anesthetized dogs, intraduodenal (CRL 40 903: then intravenous), read-out: dose as from which femoral flow rate is increased): ≥ 2.5 mg/kg | dose as from which tachycardia appears [1, 24]: ≥ 1 mg/kg | effect on blood pressure [1, 24]: no action on the blood pressure | effect on the hypertension induced by noradrenaline [1, 24]: does not modify the hypertension induced by noradrenaline | effect on the hypotension / effects of isoprenaline [1, 24]: reduces the hypotension induced by isoprenaline | effect of propanolol on induced vasodilation ([1]; anesthetized dogs, intraduodenal then intravenous): not completely suppressed by propanolol | vasodilator property ([1]; dog, in vivo): particularly interesting as vasodilators | LD-O (maximum non-lethal dose) ([3]; intraperitoneally, male mice): greater than 128 mg/kg | sedation and depressed respiration ([4]; 64 mg/kg and 128 mg/kg i.p., male mice): induce sedation and depressed respiration | sedative effects [17]: sedative effects | sedation and depressed respiration [21]: induce sedation and depressed respiration
